Laboratory results published in US20080003127A1, “Non-Ferrous Metal Cover Gases” (Honeywell International Inc., priority 2006, published 2008).
Like-named read-outs stand apart in the source and are kept apart here. Blank lines part the entries; values can stand above or below the compound they belong to.

Columns and labels:
Boiling point = assay type: physicochemical; settings: for normal boiling point: trans- vs cis-isomer
Protocol: In addition, preferred cover gas compositions of the present invention comprise […] compounds wherein each compound present in more than an insubstantial amount has a boiling point of less than about 25° C., and even more preferably less than about 0° C. Cover gases that have boiling points close to or above room temperature (i.e. which are liquids at room temperature) typically require additional metering equipment to disperse the cover gas material in a controlled fashion onto the surface of the molten metal.

[1] = background statement in words; cited from earlier work
[2] = Toxicity, stated in words (no method given); settings: comparison in words, found by applicants
[3] = Mg cover gas test: magnesium pieces in quartz tube, oven heated to about 700° C. under cover gas flow, visual inspection; settings: for relative performance as cover gas: at about 0.5% by volume; for performance as cover gas: concentrations at or above about 1.5% by volume
Protocol: A quartz tube having a well was equipped with a metered source of cover gas and a thermocouple which was placed in the well. The well was filled with about 0.2 to 0.3 g of solid magnesium pieces. The cover gas was a mixture of air (a carrier gas) and trans-HFO-1234ze. […]
The tube containing the magnesium was placed in an oven. A flow of cover gas through the tube and over the well containing the magnesium was then established at about 1 liter/minute. The oven was then heated to about 700° C. The flow of cover gas proceeded until a surface film was formed on the magnesium or the magnesium ignited.
After the test was complete, the magnesium was removed from the oven and visually inspected to determine the quality of the cover gas.
The experiments of Examples 1-5 were repeated, except that the cover gas contained […] SF6 or HFC-134a.

test subject (e.g. mice) [4] = test: 4-hour LC-50 (concentration in air that kills 50% of test subjects, single exposure); assay type: in vivo; settings: single 4-hour exposure
Protocol: Preferably, fluoroolefins used in the present compositions have low or no toxicity. In this regard, it is preferred that fluoroolefin components that a present in the compositions in more than an insubstantial amount have a LC-50 value of at least about 100,000 ppm, and more preferably at least about 200,000 ppm. As used herein, the term “LC-50 value” means the concentration of the fluoroolefin in air that will kill 50% of test subject (e.g. mice) when administered as a single exposure (e.g. 4 hours). […] For comparison, C2F5C(O)CF(CF3)2 (a fluoroketone cover gas marketed by Minnesota Mining and Manufacturing Co. of St. Paul, Minn., under the tradename Novec™) has a 4-hour LC-50 of about 100,000.

test subject (e.g. mice) [5] = settings: single 4-hour exposure; comparison compound; cited from earlier work
[6] = cardiac sensitization tests; comparison compound; cited from earlier work
[7] = 1.5 Vol. % of F-Source in Air, about 700° C.
[8] = 4.5 Vol. % of F-Source in Air, about 700° C.

Compound: FN(F)F [NF3, nitrogen trifluoride]
Boiling Point (° C.) (Boiling point; Table A): −121 °C
toxicity (known) [1]: toxic and/or hazardous

Compound: F/C=C(\F)C(F)(F)F [cis-HFO-1225ye, cis-1,1,1,2,3-pentafluoropropene]
relative toxicity between isomers [2]: relatively low degree of toxicity

Compound: O=S(=O)(F)F [SO2F2, sulfuryl fluoride]
Boiling Point (° C.) (Boiling point; Table A): −55 °C
toxicity (known) [1]: toxic and/or hazardous

Compound: FC(F)(F)C(F)(F)F [C2F6]
Boiling Point (° C.) (Boiling point; Table A): −78 °C

Boiling Point (° C.) (Boiling point; Table A): −26 °C
Compound: FCC(F)(F)F [HFC-134a, 1,1,1,2-tetrafluoroethane]
Quality of Mg Protection ([3]; 0.10 Vol. % of F-Source in Air, about 700° C.): most brown specks, protected in general
Quality of Mg Protection ([3]; 0.60 Vol. % of F-Source in Air, about 700° C.): white coating with no brown spots
Quality of Mg Protection [3, 7]: white coating; pieces not stuck together
Quality of Mg Protection [3, 8]: white coating; pieces not stuck together
relative performance as cover gas [3]: performing better than SF6
performance as cover gas [3]: performed well

Compound: FC(F)(F)/C=C\Cl [cis-HFCO-1233zd, cis-1,1,1-trifluoro-3-chloro-propene]
Boiling Point (° C.) (Boiling point; Table A): +19 °C

Compound: CC(F)F [HFC-152a, difluoroethane]
Boiling Point (° C.) (Boiling point; Table A): −25 °C

Compound: C=C(Cl)C(F)(F)F [HFCO-1233xf, 1,1,1-trifluoro-2-chloro-propene]
Boiling Point (° C.) (Boiling point; Table A): +12 °C

Compound: O=NF [nitrosyl fluoride]
toxicity (known) [1]: toxic and/or hazardous

Compound: FC=CC(F)(F)F [HFO-1234ze, 1,1,1,3-tetrafluoropropene]
4-hour LC-50 (test subject (e.g. mice) [4]): at least 100,000 ppm

Compound: O=C(C(F)(F)C(F)(F)F)C(F)(C(F)(F)F)C(F)(F)F [C2F5C(O)CF(CF3)2]
Boiling Point (° C.) (Boiling point; Table A): 49 °C
4-hour LC-50 (test subject (e.g. mice) [5]): about 100,000 ppm
NOAEL [6]: 10 vol. %

Boiling Point (° C.) (Boiling point; Table A): −82 °C
Compound: FS(F)(F)(F)(F)F [SF6, sulfurhexafluoride]
Quality of Mg Protection ([3]; 0.11 Vol. % of F-Source in Air, about 700° C.): failure; Mg ignited
Quality of Mg Protection ([3]; 0.20 Vol. % of F-Source in Air, about 700° C.): several brownish regions, very little luster,
Quality of Mg Protection ([3]; 0.43 Vol. % of F-Source in Air, about 700° C.): coating less white; brownish regions;
Quality of Mg Protection [3, 7]: white coating; pieces not stuck together
Quality of Mg Protection [3, 8]: white coating; pieces not stuck together
performance as cover gas [3]: performed well
toxicity (known) [1]: non-toxic

Compound: O=C=O [CO2, carbon dioxide]
Boiling Point (° C.) (Boiling point): −78 °C

Compound: C=C(F)C(F)(F)F [HFO-1234yf, 1,1,1,2-tetrafluoropropene]
Boiling Point (° C.) (Boiling point; Table A): −30 °C
4-hour LC-50 (test subject (e.g. mice) [4]): at least 200,000 ppm

Compound: FC=CC(F)(F)F [cis-HFO-1234ze, 1,1,1,3-tetrafluoropropene]
normal boiling point (Boiling point): 9 °C

Compound: FC(F)(F)/C=C/Cl [trans-HFCO-1233zd, trans-1,1,1-trifluoro-3-chloro-propene]
Boiling Point (° C.) (Boiling point; Table A): +19 °C

Compound: FC(F)=CC(F)(F)F [HFO-1225zc, CF3CH═CF2]
relative toxicity between isomers [2]: much more toxic

Compound: FB(F)F [boron trifluoride (BF3), boron trifluoride]
toxicity (known) [1]: very toxic

Compound: F/C=C/C(F)(F)F [trans-HFO-1234ze, trans-1,3,3,3-tetrafluoropropene]
Quality of Mg Protection ([3]; 0.09 Vol. % of F-Source in Air, about 700° C.): a few brown specks, well protected in general
Quality of Mg Protection ([3]; 0.26 Vol. % of F-Source in Air, about 700° C.): white with dark spots, no pieces stuck together
Quality of Mg Protection ([3]; 0.46 Vol. % of F-Source in Air, about 700° C.): white coating with no brown spots
Quality of Mg Protection [3, 7]: white coating; pieces not stuck together
Quality of Mg Protection [3, 8]: white coating; pieces not stuck together
protection of magnesium (visual inspection) ([3]; Example 1: about 4.5% by volume in air, about 700° C.): well protected
protection of magnesium (visual inspection) ([3]; Example 2: about 1.5% by volume in air): well protected
protection of magnesium (visual inspection) ([3]; Example 3: about 0.5% by volume in air): well protected
protection of magnesium (visual inspection) ([3]; Example 4: about 0.2% by volume in air): well protected
protection of magnesium (visual inspection) ([3]; Example 5: about 0.1% by volume in air): protected in general
relative performance as cover gas [3]: performing better than HFC-134a
performance as cover gas [3]: performed well
Boiling Point (° C.) (Boiling point; Table A): −18.4 °C
normal boiling point (Boiling point): −18.4 °C
relative toxicity between isomers [2]: less toxic than the cis-isomer

Compound: methoxy-nonafluorobutane [HFE-7100]
Boiling Point (° C.) (Boiling point; Table A): 61 °C

Compound: F/C=C(\F)C(F)F [cis-HFO-1234ye]
Boiling Point (° C.) (Boiling point): +2 °C
